According to PubChem BioAssay AID330 (DTP/NCI, 2004):
Several values for one entry are separate records, joined by “and”; a condition that tells them apart may be missing. Identical values can stand only once. Inconclusive results and toxic doses are left out. How the source made its calls: active means survival T/C of 150% or more; inactive means T/C below 125% in these data.

System: P388 leukemia ip, CD2F1 mice, survival T/C
Assay: NCI In Vivo Anticancer Drug Screen. Data for tumor model P388 Leukemia (intraperitoneal) in CD2F1 (CDF1) mice
Conditions: endpoint: median survival time, higher = longer survival
In short: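 Mice carrying the transplanted tumor received test compound or vehicle. Survival was recorded in each group, and the value is the treated-group measurement divided by that of the vehicle-treated control group.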

[1] = dose: 50.0 mg/kg/injection, schedule: Q04DX003 (ip), vehicle: saline
[2] = dose: 100.0 mg/kg/injection, schedule: Q04DX003 (ip), vehicle: saline
[3] = dose: 50.0 mg/kg/injection, schedule: Q01DX009 (ip), vehicle: saline
[4] = dose: 100.0 mg/kg/injection, schedule: Q01DX009 (ip), vehicle: saline
[5] = dose: 200.0 mg/kg/injection, schedule: Q04DX003 (ip), vehicle: saline
[6] = dose: 50.0 mg/kg/injection, schedule: Q01DX005 (ip), vehicle: Klucel (hydroxypropylcellulose) (HPC)
[7] = dose: 100.0 mg/kg/injection, schedule: Q01DX005 (ip), vehicle: Klucel (hydroxypropylcellulose) (HPC)
[8] = dose: 200.0 mg/kg/injection, schedule: Q01DX005 (ip), vehicle: Klucel (hydroxypropylcellulose) (HPC)
[9] = dose: 100.0 mg/kg/injection, schedule: Q04DX002 (ip), vehicle: saline with Tween-80
[10] = dose: 200.0 mg/kg/injection, schedule: Q04DX002 (ip), vehicle: saline with Tween-80
[11] = dose: 400.0 mg/kg/injection, schedule: Q04DX002 (ip), vehicle: saline with Tween-80
[12] = dose: 100.0 mg/kg/injection, schedule: Q04DX002 (ip), vehicle: Klucel (hydroxypropylcellulose) (HPC)
[13] = dose: 400.0 mg/kg/injection, schedule: Q04DX002 (ip), vehicle: Klucel (hydroxypropylcellulose) (HPC)

Measured: T/C

CC(=N/N=C(N)N)/C(C)=N\Nc1ccc(Cl)cc1
inactive: dose: 25.0 mg/kg/injection, schedule: Q04DX003 (ip), vehicle: saline 101 % of control | [1] 101 % of control | [2] 108 % of control and 88 % of control

CC1(C)NC(=S)N(c2ccccc2C(=O)O)C2=C1CN(Cc1ccccc1)CC2
inactive: [3] 100 % of control | [4] 95 % of control | dose: 200.0 mg/kg/injection, schedule: Q01DX009 (ip), vehicle: saline 105 % of control

COc1ccc(-n2nnnc2N(C)c2ccccc2)cc1
inactive: dose: 50.0 mg/kg/injection, schedule: Q04DX003 (ip), vehicle: saline with Tween-80 100 % of control | dose: 100.0 mg/kg/injection, schedule: Q04DX003 (ip), vehicle: saline with Tween-80 94 % of control | dose: 200.0 mg/kg/injection, schedule: Q04DX003 (ip), vehicle: saline with Tween-80 96 % of control

Cc1cc(Cl)ccc1N1C(=O)[N+](C)(C)N=C1[O-]
inactive: [2] 103 % of control | [5] 103 % of control

O=S(=O)(/N=C1/C=CC=CC1=C(N1CCOCC1)N1CCOCC1)c1ccccc1
inactive: [1] 104 % of control | [2] 111 % of control | [5] 105 % of control

CS(=O)(=O)c1nc(N)c2nnn(C3OC(CO)C(O)C3O)c2n1 (stereo unspecified)
inactive: dose: 12.5 mg/kg/injection, schedule: Q01DX001 (ip), vehicle: saline 109 % of control | dose: 25.0 mg/kg/injection, schedule: Q01DX001 (ip), vehicle: saline 100 % of control | dose: 50.0 mg/kg/injection, schedule: Q01DX001 (ip), vehicle: saline 118 % of control | dose: 100.0 mg/kg/injection, schedule: Q01DX001 (ip), vehicle: saline 109 % of control

CC(=O)OC1CC[N+](C)(Cc2ccccc2)C1 (stereo unspecified)
inactive: [3] 107 % of control | [4] 91 % of control

CCOC(=O)C(C(C)=O)C(=O)C(C)(C)C (stereo unspecified)
inactive: dose: 6.25 mg/kg/injection, schedule: Q01DX009 (ip), vehicle: saline 112 % of control | dose: 12.5 mg/kg/injection, schedule: Q01DX009 (ip), vehicle: saline 102 % of control | dose: 25.0 mg/kg/injection, schedule: Q01DX009 (ip), vehicle: saline 102 % of control | dose: 100.0 mg/kg/injection, schedule: Q01DX009 (ip), vehicle: saline with Tween-80 91 % of control | dose: 200.0 mg/kg/injection, schedule: Q01DX009 (ip), vehicle: saline with Tween-80 104 % of control

O=[N+]([O-])c1cc2cccc([N+](=O)[O-])c2o1
inactive: [6] 100 % of control | [7] 109 % of control | [8] 102 % of control

N#CCC(=O)N/N=C(/CC1(O)C(=O)Nc2c(Cl)ccc(Cl)c21)c1ccco1 (stereo unspecified)
inactive: [9] 97 % of control | [10] 89 % of control | [11] 89 % of control

Oc1c(-c2ccccc2)nc2ccccn12
inactive: dose: 60.0 mg/kg/injection, schedule: Q01DX005 (ip), vehicle: Klucel (hydroxypropylcellulose) (HPC) 94 % of control | dose: 120.0 mg/kg/injection, schedule: Q01DX005 (ip), vehicle: Klucel (hydroxypropylcellulose) (HPC) 96 % of control | dose: 240.0 mg/kg/injection, schedule: Q01DX005 (ip), vehicle: Klucel (hydroxypropylcellulose) (HPC) 107 % of control

COC1=NC2(C)C(C)=C(c3ccccc3)C1(C)c1ccccc12 (stereo unspecified)
inactive: dose: 60.0 mg/kg/injection, schedule: Q01DX005 (ip), vehicle: saline with Tween-80 100 % of control | dose: 120.0 mg/kg/injection, schedule: Q01DX005 (ip), vehicle: saline with Tween-80 98 % of control | dose: 240.0 mg/kg/injection, schedule: Q01DX005 (ip), vehicle: saline with Tween-80 99 % of control

O=S1(=O)c2ccccc2N(c2ccccc2)c2nnc(-c3ccccc3)n21
inactive: [9] 93 % of control | [10] 92 % of control | [11] 92 % of control

CCCCCCCCCCCCCCS[As](C)C
inactive: dose: 25.0 mg/kg/injection, schedule: Q04DX002 (ip), vehicle: Klucel (hydroxypropylcellulose) (HPC) 101 % of control | dose: 50.0 mg/kg/injection, schedule: Q04DX002 (ip), vehicle: Klucel (hydroxypropylcellulose) (HPC) 94 % of control | [12] 90 % of control and 92 % of control | [13] 91 % of control

COc1cccc2c1C(=O)c1c(O)c3c(c(O)c1C2=O)C[C@@](O)(C(C)O)C[C@@H]3OC1CC(N2CCOCC2)C(O)C(C)O1 (stereo partly specified)
inactive: dose: 25.0 micrograms/kg/injection, schedule: Q04DX003 (ip), vehicle: water 101 % of control | dose: 50.0 micrograms/kg/injection, schedule: Q04DX003 (ip), vehicle: water 97 % of control | dose: 100.0 micrograms/kg/injection, schedule: Q04DX003 (ip), vehicle: water 100 % of control and 118 % of control

CC(=O)OCC(Cn1ccnc1[N+](=O)[O-])OC(C)=O (stereo unspecified)
inactive: dose: 12.5 mg/kg/injection, schedule: Q01DX009 (ip), vehicle: distilled water + Tween-80 100 % of control | dose: 25.0 mg/kg/injection, schedule: Q01DX009 (ip), vehicle: distilled water + Tween-80 101 % of control | dose: 50.0 mg/kg/injection, schedule: Q01DX009 (ip), vehicle: distilled water + Tween-80 100 % of control | dose: 100.0 mg/kg/injection, schedule: Q01DX009 (ip), vehicle: distilled water + Tween-80 111 % of control | dose: 200.0 mg/kg/injection, schedule: Q01DX009 (ip), vehicle: distilled water + Tween-80 108 % of control

O=[N+]([O-])c1cccc(-c2ccccc2)c1Br
inactive: dose: 37.5 mg/kg/injection, schedule: Q04DX003 (ip), vehicle: saline with Tween-80 100 % of control | dose: 75.0 mg/kg/injection, schedule: Q04DX003 (ip), vehicle: saline with Tween-80 100 % of control | dose: 150.0 mg/kg/injection, schedule: Q04DX003 (ip), vehicle: saline with Tween-80 100 % of control

O=C(CO)N(O)c1ccc(Cl)cc1
inactive: dose: 50.0 mg/kg/injection, schedule: Q01DX009 (ip), vehicle: water 109 % of control | dose: 100.0 mg/kg/injection, schedule: Q01DX009 (ip), vehicle: water 101 % of control

CCN(CC)c1nc(Cl)nc(Nc2ccc3cc(-c4ccccc4)c(=O)oc3c2)n1
inactive: [6] 98 % of control | [7] 95 % of control | [8] 104 % of control

Brc1ccc(N=C2N=C(Nc3ccc(Br)cn3)c3ccccc32)nc1
inactive: dose: 12.5 mg/kg/injection, schedule: Q04DX002 (ip), vehicle: saline with Tween-80 100 % of control | dose: 25.0 mg/kg/injection, schedule: Q04DX002 (ip), vehicle: saline with Tween-80 94 % of control | dose: 50.0 mg/kg/injection, schedule: Q04DX002 (ip), vehicle: saline with Tween-80 90 % of control | [10] 91 % of control | [11] 106 % of control

CCc1noc2cc(-c3ccccc3)n(C)c(=O)c12
inactive: [6] 100 % of control | [7] 104 % of control | [8] 105 % of control

OC(CCCN1CCN2CCc3[nH]c4ccccc4c3C2C1)c1ccc(F)cc1 (stereo unspecified)
inactive: [12] 100 % of control | dose: 200.0 mg/kg/injection, schedule: Q04DX002 (ip), vehicle: Klucel (hydroxypropylcellulose) (HPC) 95 % of control | [13] 100 % of control
